Assay results reported in patent US8618082B2, “Lupeol anti-tumor agent and uses thereof” (Wisconsin Alumni Research Foundation, priority 2004, dated 2013).

Legend:
CD-1 mouse skin = assay: TPA-induced cutaneous edema, skin punch weight; type: in vivo; details: TPA alone, 3.2 nmole/mouse topical
Method: Studies from the inventors' laboratory and by other have shown that TPA application to mouse skin results in cutaneous edema (Katiyar et at, 1996; Liang et at, 2002). In the present study, the inventors evaluated the protective effects of topical application of Lupeol in TPA-mediated cutaneous edema in CD-1 mouse. The inventors tested four doses 0.25, 0.5, 1 and 2 mg of Lupeol per animal in the inventors' preliminary studies. […] The CD-1 mice were topically treated with Lupeol (1 and 2 mg/mouse) and 30 min later were topically treated with TPA (3.2 nmole/mouse). […] At least four determinations were made at different dorsal skin sites per mouse in each group. The data represents the mean±SE of eight mice (*p<0.01 vs TPA).
(§1) The animals were shaved on the dorsal side of the skin, divided into four groups and treated topically on the shaved area with either 0.4 ml vehicle (acetone), or TPA (3.2 nmol/0.4 ml acetone/animal, v/v), or Lupeol (1 or 2 mg/0.2 ml acetone/animal, w/v) followed 30 min later with TPA (3.2 nmol/0.2 ml acetone/animal). Animals were sacrificed at different times point i.e. 6, 12, 24 and 48 h post TPA treatment. The epidermis was separated from the whole skin and homogenized in 0.1 M Tris-HCl buffer (pH 7.2) using a Polytron tissue homogenizer (Brinkmann Instruments, Westbury, N.Y., USA) at 100,000×g supernatant, and microsomal fractions were prepared as described earlier (Katiyar and Mukhtar, 1997). The sample of 6 h treatment group was used to assess the ODC activity as this time point has previously been shown for optimal induction of the enzyme (Katiyar er al., 1996).
To assess the inhibitory effect of pre-application of Lupeol on TPA-induced edema, 1 cm-diameter punches of skin from vehicle-, Lupeol-, TPA- or Lupeol- and TPA-treated mice were removed, made free of fat pads, and weighed immediately. After drying for 24 h at 50° C., the skin punches were reweighed, and the loss of water content was determined. The difference in the amount of water gain between the control (vehicle treated) and TPA treated represented the extent of edema induced by TPA, whereas that between the control vehicle and Lupeol plus TPA represented the inhibitory effect of Lupeol. For the hyperplasia study, skin was removed, fixed in 10% formalin, and embedded in paraffin. Vertical sections (5 μm) were cut, mounted on a glass slide, and stained with hematoxylin and eosin.

epidermal ODC protein = assay: TPA-induced epidermal ODC protein expression (western blot); type: in vivo, mouse; details: TPA topical
Method: (§2) FIG. 4. Inhibitory effect of Lupeol on TPA-induced epidermal ODC, iNOS and COX-2 protein expression in CD-1 mice: At different times after treatment, the animals were sacrificed, epidermal protein lysate was prepared, and ODC and COX-2 protein expression were determined. Equal loading of protein was confirmed by stripping the immunoblot and reprobing it for β-actin. The immunoblots shown here are representative of three independent experiments with similar results. The values above each lane indicate relative density of the band normalized to β-actin.
(§3) The animals were shaved on the dorsal side of the skin, divided into four groups and treated topically on the shaved area with either 0.4 ml vehicle (acetone), or TPA (3.2 nmol/0.4 ml acetone/animal, v/v), or Lupeol (1 or 2 mg/0.2 ml acetone/animal, w/v) followed 30 min later with TPA (3.2 nmol/0.2 ml acetone/animal). Animals were sacrificed at different times point i.e. 6, 12, 24 and 48 h post TPA treatment. […]
(§4) Epidermis from the whole skin was separated as described earlier (Katiyar et al., 1999) and was homogenized in ice-cold lysis buffer [50 mM Tris-HCl, 150 mM NaCl, 1 mM EGTA, 1 mM EDTA, 20 mM NaF, 100 mM Na3VO4, 0.5% NP-40, 1% Triton X-100, 1 mM PMSF (pH 7.4)] with freshly added protease inhibitor cocktail, Protease Inhibitor Cocktail Set III (Calbiochem, La Jolla, Calif., USA). […] The protein content in the lysates was measured by DC BioRad assay (BioRad Laboratories, Hercules, Calif.) as per the manufacturer's protocol.
(§5) For western blot analysis, 40 μg of the protein was resolved over 8-12% polyacrylamide gels and transferred to a nitrocellulose membrane. […] This was followed by incubation with anti-mouse or anti-rabbit secondary antibody horse-radish peroxidase (Amersham Life Sciences, Inc., USA) for 1 h and then washed several times and detected by chemiluminescence ECL kit, (Amersham Life Sciences, Inc., USA) and autoradiography using XAR-5 film obtained from Eastman Kodak Co. (Rochester, N.Y., USA). […]

epidermal COX-2 protein = assay: TPA-induced epidermal COX-2 protein expression (western blot); type: in vivo, mouse; details: TPA topical, 6 h post treatment
Method: as §2, §1
as §4, with “USA). The homogenate was then centrifuged at 14,000×g for 25 minutes at 4° C. and the supernatant (total cell lysate) was collected, aliquoted and stored at −80° C. For the preparation of nuclear lysate, 0.2 g of the epidermis was homogenized in 1 ml of ice-cold phosphate-buffered saline (pH 7.6) and centrifuged at 12,000×g for 5 min at 4° C.” for “USA).”
as §5

epidermal iNOS protein = assay: TPA-induced epidermal iNOS protein expression (western blot); type: in vivo, mouse; details: TPA alone topical
Method: as §2, §3, §4, §5

[1] = test system: catalytic (p110) and regulatory (p85) subunit of PI3K; assay: TPA-induced epidermal PI3K expression (western blot); type: in vivo, mouse
Method: (§6) FIG. 5. Inhibitory effect of Lupeol on TPA-induced activation of PI3K and phosphorylation of Akt in CD-1 mice: At different times after treatment, the animals were sacrificed, epidermal protein lysate was prepared, and PI3K and phosphorylated (Thr^308) Akt and total Akt protein expression were determined. The immunoblots shown here are representative of three independent experiments with similar results. The values above each lane indicate relative density of the band normalized to β-actin.
as §1
as §4, with “USA). The homogenate was then centrifuged at 14,000×g for 25 minutes at 4° C. and the supernatant (total cell lysate) was collected, aliquoted and stored at −80° C. For the preparation of nuclear lysate, 0.2 g of the epidermis was homogenized in 1 ml of ice-cold phosphate-buffered saline (pH 7.6) and centrifuged at 12,000×g for 5 min at 4° C.” for “USA).”
as §5

Akt = assay: TPA-induced phosphorylation of Akt at Thr308 (western blot); type: in vivo, mouse; details: TPA, 6 h post treatment
Method: as §6, §3, §4, §5

IKKα protein = assay: TPA-induced activation of IKKα (western blot); type: in vivo, mouse; details: TPA topical
Method: FIG. 6. Inhibitory effect of Lupeol on TPA-induced activation of IKKα, and phosphorylation and degradation of IκBα in CD-1 mice: At different times after treatment, the animals were sacrificed, epidermal cytosolic was prepared, and protein expression was determined. Equal loading was confirmed by stripping the immunoblot and reprobing it for β-actin. The immunoblots shown here are representative of three independent experiments with similar results. The values above each lane indicate relative density of the band normalized to β-actin.
as §3, with “acetone/animal).” for “acetone/animal). Animals were sacrificed at different times point i.e. 6, 12, 24 and 48 h post TPA treatment.”
as §4, with “protocol. […]” for “protocol.”

`CCCCCCCCCCCCCC(=O)O[C@@H]1[C@@H](C)[C@@]2(O)[C@@H](C=C(CO)C[C@]3(O)C(=O)C(C)=C[C@@H]23)[C@@H]2C(C)(C)[C@]12OC(C)=O` [TPA, 12-O-tetradecanoyl-phorbol acetate, reference compound] was tested, and the “Skin punch weight 24 hrs” value (CD-1 mouse skin) was 23.5 ± 0.5 mg/cm2, the “Skin punch weight 48 hrs” value (CD-1 mouse skin) was 25.5 ± 0.75 mg/cm2 and the “increase in epidermal ODC protein level vs acetone treated control” value (epidermal ODC protein) was 4 fold. For the same molecule, the “maximum increase in epidermal COX-2 protein expression vs acetone control” value (epidermal COX-2 protein) was 2.7 fold, the “increase in iNOS protein expression vs vehicle treated controls” value (epidermal iNOS protein) was 5 fold and the “increase in expression of catalytic (p110) and regulatory (p85) subunit of PI3K” value ([1]; TPA topical) was 2 to 3 fold. For the same molecule, the “induction in the expression of catalytic subunit p110” value ([1]; TPA, 6 h post treatment) was 3 fold, the “maximum phosphorylation of Akt” value (Akt) was 3.8 fold and the “increase in the expression of IKKα protein” value (IKKα protein) was 5.5 fold.
